The source of these data is ChEMBL document CHEMBL2074023, “Reversal of acquired resistance to doxorubicin in K562 human leukemia cells by astemizole” (Biol Pharm Bull, 2000).

Series [1] addresses T1, ATP-dependent translocase ABCB1 (Homo sapiens, UniProt P08183). In words: TP_TRANSPORTER: increase in Doxorubicin intracellular accumulation (Doxorubicin: 4 uM, Astemizole: 3 uM) in K562/DOX cells. Type of series: functional, cell-based. Particulars: k562/adr.
Series [2] addresses T1, ATP-dependent translocase ABCB1. In words: TP_TRANSPORTER: inhibition of Azidopine photoaffinity labelling (Azidopine: 0.1 uM, Astemizole: 10 uM) in membranes from K562/DOX cells. Particulars: k562/adr. Type of series: functional, cell membranes, Membrane.

T1 sequence (P08183 whole entry): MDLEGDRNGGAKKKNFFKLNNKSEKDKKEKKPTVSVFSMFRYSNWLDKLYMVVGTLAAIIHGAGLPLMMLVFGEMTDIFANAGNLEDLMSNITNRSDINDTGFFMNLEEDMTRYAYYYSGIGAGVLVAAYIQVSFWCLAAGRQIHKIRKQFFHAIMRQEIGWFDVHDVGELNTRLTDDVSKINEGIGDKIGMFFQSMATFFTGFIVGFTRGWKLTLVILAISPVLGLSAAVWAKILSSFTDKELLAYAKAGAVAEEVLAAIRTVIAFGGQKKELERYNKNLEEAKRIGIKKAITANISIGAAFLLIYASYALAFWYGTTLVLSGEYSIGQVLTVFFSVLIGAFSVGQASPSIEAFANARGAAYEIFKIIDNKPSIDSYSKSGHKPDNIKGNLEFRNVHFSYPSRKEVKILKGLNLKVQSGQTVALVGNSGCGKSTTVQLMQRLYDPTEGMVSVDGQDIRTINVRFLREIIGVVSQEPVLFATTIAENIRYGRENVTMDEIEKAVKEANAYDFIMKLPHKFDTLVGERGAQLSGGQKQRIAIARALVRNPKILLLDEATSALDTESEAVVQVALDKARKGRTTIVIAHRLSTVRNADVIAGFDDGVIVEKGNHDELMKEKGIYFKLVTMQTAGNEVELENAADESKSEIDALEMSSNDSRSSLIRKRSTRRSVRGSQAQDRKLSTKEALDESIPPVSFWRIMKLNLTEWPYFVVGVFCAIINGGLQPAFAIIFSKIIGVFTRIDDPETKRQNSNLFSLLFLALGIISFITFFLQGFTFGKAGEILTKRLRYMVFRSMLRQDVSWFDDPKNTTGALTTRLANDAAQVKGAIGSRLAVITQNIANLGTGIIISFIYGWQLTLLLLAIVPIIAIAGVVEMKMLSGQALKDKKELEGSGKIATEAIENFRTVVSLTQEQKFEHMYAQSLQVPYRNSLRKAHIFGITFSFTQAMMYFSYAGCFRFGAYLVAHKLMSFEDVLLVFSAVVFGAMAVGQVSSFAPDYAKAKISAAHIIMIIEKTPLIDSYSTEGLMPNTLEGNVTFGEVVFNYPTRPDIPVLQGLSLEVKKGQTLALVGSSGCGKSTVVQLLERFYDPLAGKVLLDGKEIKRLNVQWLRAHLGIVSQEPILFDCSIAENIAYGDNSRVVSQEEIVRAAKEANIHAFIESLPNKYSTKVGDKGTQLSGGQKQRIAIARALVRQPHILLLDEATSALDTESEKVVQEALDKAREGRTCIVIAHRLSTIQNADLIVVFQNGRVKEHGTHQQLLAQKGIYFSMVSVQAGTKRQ

Consider `COc1ccc(CCN2CCC(Nc3nc4ccccc4n3Cc3ccc(F)cc3)CC2)cc1` [ASTEMIZOLE], for which the Activity entry in series [1] and in series [2] was “inhibitor [+]” each time.
